For 24 compounds, IC50 results are on record in patent US8791102B2, “Acetanilide sphingosine-1-phosphate receptor antagonists” (Exelixis, Inc., priority 2008, dated 2014).

This assay has as its target T1, human S1P1 receptors (Homo sapiens, UniProt P21453).
T1 construct: host or cells: HEK293
As to the kind of experiment: S1P1R antagonist assay (fluorescent membrane potential dye, cAMP readout). Type of assay: cell-based. The settings on record: HEK293 cells expressing human S1P1 receptors and CNG channel; 500 nM NECA; S1P1R agonist 10 nM; 90 minutes; read-out: EC50 or IC50 value.

T1 sequence (P21453 whole entry): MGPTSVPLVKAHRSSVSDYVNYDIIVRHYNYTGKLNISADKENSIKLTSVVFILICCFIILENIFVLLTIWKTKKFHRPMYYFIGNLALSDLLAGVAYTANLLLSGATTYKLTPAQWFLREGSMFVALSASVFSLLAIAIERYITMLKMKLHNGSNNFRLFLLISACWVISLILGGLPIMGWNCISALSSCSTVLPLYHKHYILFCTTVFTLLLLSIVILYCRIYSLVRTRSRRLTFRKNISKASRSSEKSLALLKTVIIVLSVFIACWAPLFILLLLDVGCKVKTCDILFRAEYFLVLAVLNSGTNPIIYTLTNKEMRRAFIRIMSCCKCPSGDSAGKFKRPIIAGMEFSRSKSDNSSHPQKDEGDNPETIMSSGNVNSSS

For `COc1ccc([C@@H]2C[C@@H](C(=O)Nc3ccc(Oc4ccc(F)cc4)cc3)N(C(=O)Cn3cncn3)C2)cc1` [Compound 62, (2S,4S)-1-(2-(1H-1,2,4-triazol-1-yl)acetyl)-N-(4-(4-fluorophenoxy)phenyl)-4-(4-methoxyphenyl)pyrrolidine-2-carboxamide], the IC50 (as a rule, the point on the concentration scale where inhibition reaches its midpoint) was no more than 300 nM.

For the compound `O=C(CCC(=O)C1CC1)NC(COCc1ccccc1)C(=O)Nc1ccc(Oc2ccccc2)cc1` (stereo not drawn) [Compound 186, N-(3-(benzyloxy)-1-oxo-1-(4-phenoxyphenylamino)propan-2-yl)-4-cyclopropyl-4-oxobutanamide], the IC50 was 300 to 1000 nM.

As for `O=C(Cn1cncn1)N[C@@H](COCc1ccc(F)cc1)C(=O)Nc1ccc(Oc2ccc(F)cc2)cc1` [Compound 135, (S)-2-(2-(1H-1,2,4-triazol-1-yl)acetamido)-3-(4-fluorobenzyloxy)-N-(4-(4-fluorophenoxy)phenyl)propanamide], the IC50 was no more than 300 nM.

Regarding `CCOc1ccc(C(=O)NC(COCc2ccccc2)C(=O)Nc2ccc(Oc3ccccc3)cc2)cc1` (stereo not drawn) [Compound 281, 4-(ethyloxy)-N-(2-oxo-1-{[(phenylmethyl)oxy]methyl}-2-{[4-(phenyloxy)phenyl]amino}ethyl)benzamide], the IC50 is greater than 1000 nM. With `C[C@@H]1CN(CC(=O)N[C@@H](COCc2ccccc2)C(=O)Nc2ccc(Oc3ccc(F)cc3)cc2)C[C@H](C)O1` [Compound 234, (S)-3-(benzyloxy)-2-(2-((2R,6S)-2,6-dimethylmorpholino)acetamido)-N-(4-(4-fluorophenoxy)phenyl)propanamide], the concentration for half-maximal inhibition (IC50) lay in the range of 300 to 1000 nM. Regarding `O=C(Cc1cccc(Br)c1)NC(COCc1ccccc1)C(=O)Nc1ccc(Oc2ccccc2)cc1` (stereo not drawn) [Compound 384, N-(2-oxo-1-{[(phenylmethyl)oxy]methyl}-2-{[4-(phenyloxy)phenyl]amino}ethyl)-2-(3-bromophenyl)acetamide], the IC50 is greater than 1000 nM. For the compound `COc1ccc(CCC(=O)NC(COCc2ccccc2)C(=O)Nc2ccc(Oc3ccccc3)cc2)cc1` (stereo not drawn) [Compound 304, N-(2-oxo-1-{[(phenylmethyl)oxy]methyl}-2-{[4-(phenyloxy)phenyl]amino}ethyl)-3-(4-methoxyphenyl)propanamide], the IC50 is greater than 1000 nM. Take `COCCN1CCN(CC(=O)N[C@@H](COCc2ccccc2)C(=O)Nc2ccc(Oc3ccc(F)cc3)cc2)CC1` [Compound 241, (S)-3-(benzyloxy)-N-(4-(4-fluorophenoxy)phenyl)-2-(2-(4-(2-methoxyethyl)piperazin-1-yl)acetamido)propanamide]: the IC50 lay in the range of 300 to 1000 nM. With `Cc1ccc(C(=O)NC(COCc2ccccc2)C(=O)Nc2ccc(Oc3ccccc3)cc2)cc1F` (stereo not drawn) [Compound 400, 3-fluoro-4-methyl-N-(2-oxo-1-{[(phenylmethyl)oxy]methyl}-2-{[4-(phenyloxy)phenyl]amino}ethyl)benzamide], the IC50 was greater than 1000 nM.

`O=C(Nc1ccc(Oc2ccc(F)cc2)cc1)[C@@H]1C[C@@H](Cc2ccccc2)CN1C(=O)Cn1ccnn1` [Compound 10, (2S,4R)-1-(2-(1H-1,2,3-triazol-1-yl)acetyl)-4-benzyl-N-(4-(4-fluorophenoxy)phenyl)pyrrolidine-2-carboxamide]: the IC50 is no more than 300 nM. Regarding `COc1cc(C(=O)NC(COCc2ccccc2)C(=O)Nc2ccc(Oc3ccccc3)cc2)cc(OC)c1OC` (stereo not drawn) [Compound 291, 3,4,5-tris(methyloxy)-N-(2-oxo-1-{[(phenylmethyl)oxy]methyl}-2-{[4-(phenyloxy)phenyl]amino}ethyl)benzamide], the concentration for half-maximal inhibition (IC50) was greater than 1000 nM.

Regarding `Cc1ccc(C)c(CC(=O)NC(COCc2ccccc2)C(=O)Nc2ccc(Oc3ccccc3)cc2)c1` (stereo not drawn) [Compound 373, N-(2-oxo-1-{[(phenylmethyl)oxy]methyl}-2-{[4-(phenyloxy)phenyl]amino}ethyl)-2-(2,5-dimethylphenyl)acetamide], the IC50 was greater than 1000 nM. As to `COCCOCCOCC(=O)NC(COCc1ccccc1)C(=O)Nc1ccc(Oc2ccccc2)cc1` (stereo not drawn) [Compound 315, N-(2-oxo-1-{[(phenylmethyl)oxy]methyl}-2-{[4-(phenyloxy)phenyl]amino}ethyl)-2-[2-(methoxy)ethoxy]ethoxyacetamide], the half-maximal inhibitory concentration (IC50) is greater than 1000 nM. Turning to `O=C(Cc1ccccc1Br)NC(COCc1ccccc1)C(=O)Nc1ccc(Oc2ccccc2)cc1` (stereo not drawn) [Compound 301, N-(2-oxo-1-{[(phenylmethyl)oxy]methyl}-2-{[4-(phenyloxy)phenyl]amino}ethyl)-2-bromophenylacetamide], the half-maximal inhibitory concentration (IC50) was 300 to 1000 nM. As to `CCOc1ccc(CC(=O)NC(COCc2ccccc2)C(=O)Nc2ccc(Oc3ccccc3)cc2)cc1` (stereo not drawn) [Compound 343, N-(2-oxo-1-{[(phenylmethyl)oxy]methyl}-2-{[4-(phenyloxy)phenyl]amino}ethyl)-2-(4-ethoxyphenyl)acetamide], the IC50 is greater than 1000 nM. In the case of `O=C(Nc1ccc(Oc2ccc(F)cc2)cc1)[C@@H]1C[C@@H](Cc2ccccc2)CN1C(=O)CO` [Compound 120, (2S,4R)-4-benzyl-N-(4-(4-fluorophenoxy)phenyl)-1-(2-hydroxyacetyl)pyrrolidine-2-carboxamide], the half-maximal inhibitory concentration (IC50) was no more than 300 nM. Under `O=C(NC(COCc1ccccc1)C(=O)Nc1ccc(Oc2ccccc2)cc1)c1ccc(OC(F)F)cc1` (stereo not drawn) [Compound 399, 4-[(difluoromethyl)oxy]-N-(2-oxo-1-{[(phenylmethyl)oxy]methyl}-2-{[4-(phenyloxy)phenyl]amino}ethyl)benzamide] stands greater than 1000 nM. For `O=C(NC(COCc1ccccc1)C(=O)Nc1ccc(Oc2ccccc2)cc1)c1cc(F)ccc1Br` (stereo not drawn) [Compound 21, N-(3-(benzyloxy)-1-oxo-1-(4-phenoxyphenylamino)propan-2-yl)-2-bromo-5-fluorobenzamide], the IC50 is greater than 1000 nM.

For `O=C(Nc1ccc(Oc2ccc(F)cc2)cc1)[C@@H]1C[C@@H](Cc2ccccc2)CN1C(=O)Cc1cccs1` [Compound 117, (2S,4R)-4-benzyl-N-(4-(4-fluorophenoxy)phenyl)-1-(2-(thien-2-yl)acetyl)pyrrolidine-2-carboxamide], the IC50 was no more than 300 nM. For the compound `CCC(C)CC(=O)NC(COCc1ccccc1)C(=O)Nc1ccc(Oc2ccccc2)cc1` (stereo not drawn) [Compound 385, 3-methyl-N-(2-oxo-1-{[(phenylmethyl)oxy]methyl}-2-{[4-(phenyloxy)phenyl]amino}ethyl)pentanamide], the IC50 was greater than 1000 nM. Turning to `O=C(NC(COCc1ccccc1)C(=O)Nc1ccc(Oc2ccccc2)cc1)c1sc2ccccc2c1Cl` (stereo not drawn) [Compound 297, 3-chloro-N-(2-oxo-1-{[(phenylmethyl)oxy]methyl}-2-{[4-(phenyloxy)phenyl]amino}ethyl)-1-benzothiophene-2-carboxamide], the IC50 is greater than 1000 nM. Under `O=C(NC(COCc1ccccc1)C(=O)Nc1ccc(Oc2ccccc2)cc1)c1cccc(Cl)c1F` (stereo not drawn) [Compound 299, 3-chloro-2-fluoro-N-(2-oxo-1-{[(phenylmethyl)oxy]methyl}-2-{[4-(phenyloxy)phenyl]amino}ethyl)benzamide] stands greater than 1000 nM; under `O=C(Cc1ccc(F)cc1F)NC(COCc1ccccc1)C(=O)Nc1ccc(Oc2ccccc2)cc1` (stereo not drawn) [Compound 363, N-(2-oxo-1-{[(phenylmethyl)oxy]methyl}-2-{[4-(phenyloxy)phenyl]amino}ethyl)-2-(2,4-difluorophenyl)acetamide], greater than 1000 nM; under `COCC(=O)N1C[C@H](Cc2ccccc2)C[C@H]1C(=O)Nc1ccc(Oc2ccc(F)cc2)cc1` [Compound 122, (2S,4R)-4-benzyl-N-(4-(4-fluorophenoxy)phenyl)-1-(2-methoxyacetyl)pyrrolidine-2-carboxamide], no more than 300 nM.
